Values of other authors in US4318905A, “Nonapeptide and decapeptide agonists of luteinizing hormone releasing hormone containing heterocyclic amino acid residues” (Syntex (U.S.A.) Inc., priority 1980, dated 1982).

Conditions: Gly in the 6-position replaced by a D-amino acid

Row | Substance | activity relative to LH-RH
1 | [D-Phe^6 ]LHRH | increased activity
2 | [D-Ala^6 ]LHRH | increased activity
3 | [D-Trp^6 ]LHRH | increased activity
